US20250235457A1, “METHODS AND COMPOSITIONS FOR TREATING CDKL5 DISORDER USING ALLOPURINOL” (priority 2024, published 2025)

Legend:
[1] = system: CDKL5-deficient mice; assay: Hind limb clasping test; format: in vivo; settings: Het CDKL5-deficient mice before vs after treatment, 5 and 10 days oral (FIG. 9)
Protocol: The hind limb clasping test was performed to assess motor function and neurological impairments in CDKL5-deficient mouse models before and after treatment with allopurinol. […] Mice were suspended by their tails for a duration of 2 minutes, and hind limb retraction behavior (referred to as clasping) was recorded. Video recordings were analyzed to determine total clasping time during the test. Each mouse was evaluated using a standardized scoring system based on the severity of hind limb clasping behavior: • 0. No limb clasping observed. • 1.
Testing was conducted at baseline (pre-treatment) and at 5 and 10 days following oral administration of allopurinol. The hind limb clasping scores were averaged for each group, and the results were analyzed to assess changes in motor impairments following treatment.

[2] = system: patient with CDKL5 deficiency disorder (CDD); assay: Off-label allopurinol treatment of a pediatric patient with CDD (case); format: in vivo, human
Excerpt: CDD is a severe neurodevelopmental disorder characterized by treatment-resistant epilepsy, profound developmental delays, and significant motor impairments.
The patient presented with severe developmental delays since birth and had never met motor or speech milestones. […] The patient also experienced frequent, uncontrolled seizures despite being on a ketogenic diet and receiving physical, occupational, speech, and vision therapies. Their seizures were refractory to multiple anti-epileptic drugs (AEDs), including Keppra, Epidiolex, Soticlestat, Clonazepam, Sabril, Phenobarbital, and Oxcarbazepine.
Baseline assessments conducted prior to treatment initiation included a review of medical history, physical examination, laboratory tests, and functional evaluations.
Allopurinol was prescribed as an adjunct therapy to the patient's existing seizure management regimen without modifications to their ongoing AED treatments or dietary plan. The treatment protocol involved administering allopurinol at a dose of 100 mg per day, divided into two doses of 50 mg with lunch and 50 mg with dinner. The patient's progress was monitored over a 24-week period, unless adverse events necessitated an adjustment or discontinuation of the treatment. Caregivers maintained a daily diary to document seizure frequency, duration, and type, as well as changes in behavior, communication attempts, motor abilities, urine output, and general health.
Clinical assessments were conducted every four weeks, either virtually or in-person, to monitor safety and efficacy. Laboratory tests were performed every six weeks to evaluate uric acid levels, urinalysis, complete blood count (“CBC”), blood sugar levels, and other relevant indicators. EEG assessments were conducted at baseline, at eight-week intervals, and at the end of the study to evaluate changes in seizure activity and brain function. Regular evaluations by a pediatric neuro-ophthalmologist were included to assess visual and neurological health.
During the study, therapeutic interventions such as speech therapy, physical therapy, and the use of augmentative and alternative communication (AAC) devices were continued. Specific goals included improving functional communication through AAC, enhancing motor control, and increasing engagement with therapy activities. Progress in these areas was tracked alongside clinical outcomes to assess the comprehensive impact of allopurinol on the patient's quality of life.
At the time of treatment initiation, the patient weighed 18 kg. […] The end-of-study assessment included a final medical evaluation, EEG, laboratory tests, and a review of therapy outcomes to measure the safety and efficacy of allopurinol as a treatment for CDD.

[3] = system: CDKL2; assay: qPCR of CDKL2 expression in the treated patient; format: in vivo, human
[4] = system: pediatric patients diagnosed with CDKL5 disorder; assay: Prospective open-label clinical trial in pediatric patients with CDKL5 disorder; format: in vivo, human
Protocol: For the clinical trial, a prospective, open-label study was conducted between Aug. 1, 2023, and May 1, 2024, to evaluate the efficacy of allopurinol in pediatric patients diagnosed with CDKL5 disorder. The trial enrolled eight patients, aged 2 to 10 years, with a confirmed diagnosis of CDKL5 disorder and ongoing epilepsy that was resistant to conventional anti-epileptic drugs. Patients were required to have a stable seizure regimen for at least four weeks prior to participation. Those with a history of severe allergic reactions to allopurinol or other contraindicating medical conditions were excluded from the study. All patients were treated with allopurinol as an adjunct therapy to their existing anti-epileptic drug regimen, with the starting dose set at 10 mg/kg/day, administered orally in divided doses (twice daily, BID). The dosage was adjusted based on individual tolerability, and all treatment was closely supervised by a pediatric neurologist specializing in seizure disorders. Seizure frequency and severity were assessed at baseline and then at 4-week intervals throughout the 9-month study period. The primary endpoint of the study was the reduction in the frequency of major motor seizures, which was assessed using patient diaries and caregiver reports. Secondary endpoints included the severity of seizures (measured by the Modified Rankin Scale), overall neurological improvement, and quality of life, evaluated using the CDKL5 Disorder Disease-Specific Quality of Life (CDKL5-QoL) questionnaire. Statistical analysis was performed using paired t-tests to compare seizure frequency data between baseline and post-treatment periods, with a significance level set at p<0.05.

[5] = system: CDKL5 Het female mice; assay: Seizure monitoring (video and EEG) in CDKL5 Het female mice; format: in vivo; settings: 30 mg/kg/day in drinking water, treated vs untreated controls
Excerpt: A p-value of <0.05 was considered statistically significant.

[6] = system: CDKL2 and GluN2B subunits in the hippocampal and cortical regions; assay: Histological / immunohistochemical analysis of brain tissue of CDKL5 Het mice; format: in vivo; settings: treated animals, 30 mg/kg/day
Protocol: In addition to the clinical trial, a preclinical animal study was conducted using a mouse model of CDKL5 disorder (CDKL5 Het female mice). A total of eight mice were included in the study, with four receiving treatment and four serving as untreated controls. All mice were housed under standard laboratory conditions with a 12-hour light/dark cycle and ad libitum access to food and water. The treatment protocol involved the oral administration of allopurinol dissolved in drinking water at a target dose of 30 mg/kg/day. The solution was prepared in phosphate-buffered saline (PBS) with a concentration of 0.1 mg/mL allopurinol in a 1:10 solution of dimethyl sulfoxide (DMSO):PBS (pH 7.2). Control animals received an identical solution without allopurinol. Seizure activity was monitored daily throughout the study, with seizure severity and duration recorded using both video and electroencephalogram assessments. At the end of the study, brain tissue from both treated and untreated animals was collected for histological analysis, specifically to assess the expression of CDKL2 and GluN2B subunits in the hippocampal and cortical regions. Immunohistochemical staining was used to visualize the localization and abundance of these proteins. Data from the seizure monitoring were analyzed using an unpaired t-test, and histological data were quantified using image analysis software. […]

[7] = system: phosphorylation of key synaptic proteins, including EB2 (MAPRE2); assay: Neuronal cultures derived from CDKL5-deficient models; format: cell-based
[8] = 1:10 solution of DMSO:PBS (pH 7.2); 'believed to be approximately'; cited from earlier work
[9] = system: CDKL5-deficient mice; assay: Marble burying test
[10] = system: EB2 (MAPRE2) phosphorylation at phospho-Serine 222; assay: Western blot of EB2 phosphorylation in brain tissue of CDKL5-deficient mice; settings: 10 days
[11] = 100 mg per day, 24-week study period

Oc1ncnc2[nH]ncc12 [allopurinol]
hind limb clasping behavior [1]: significant reduction in hind limb clasping behavior
EEG background activity ([2]; 100 mg per day adjunct, with a reduction in epileptic discharges): marked improvement
adverse effects [2, 11]: No adverse effects were reported
tolerability [2, 11]: well tolerated
CDKL5 Severity Scale Part 3 (Caregiver Report) ([2]; 3 months after treatment, before treatment 1, lower desirable): 0
CDKL5 Severity Scale Part 6 (Motor Skills) ([2]; 3 months after treatment, before treatment 2, higher desirable): 4
CDKL5 Severity Scale Part 4 (Clinician Report) ([2]; 3 months after treatment, before treatment 25, lower desirable): 25
CDKL5 Severity Scale Part 2 (Seizure Activity) ([2]; 3 months after treatment, before treatment 29, lower desirable): 29
CDKL5 Severity Scale Part 1 (General Health) ([2]; 3 months after treatment, before treatment 32, lower desirable): 21
CDKL5 Severity Scale Total Score ([2]; 3 months after treatment, before treatment 104): 69
CDKL5 Severity Scale Part 5 (Behavioral Skills) ([2]; 3 months after treatment, before treatment −1, higher desirable): 8
seizure status ([2]; person, 100 mg per day adjunct, after 3 months): completely seizure-free
quality of life (observational) ([2]; qualitative observational data): reduced sleep disturbances, improved saliva control, and decreased caregiver burden
cognitive and motor functions ([2]; therapist and caregiver observation): notable gains in cognitive and motor functions
patient's CDKL2 expression level ([3]; control group mean 5.44307×10^−6 (±2.26749×10^−6)): 1.7356×10^−5 (±1.302×10^−6)
increase in the expression of CDKL2 vs healthy donor controls ([3]; treated patient compared to healthy donor controls): 3 fold
patients demonstrating a decrease in seizure severity by at least one grade (Modified Rankin Scale) ([4]; 10 mg/kg/day): 75 % of patients
patients reporting improvements in sleep patterns, motor skills, and cognitive function (CDKL5-QoL) ([4]; 10 mg/kg/day): 87.5 % of patients
speech and motor delays ([4]; clinical trial conclusions): did not show marked improvements
mean reduction in major motor seizures ([4]; eight patients aged 2 to 10 years, 10 mg/kg/day oral BID adjunct, 9 months, baseline on average 12 times per week): 63.2%
reduction in seizure duration [5]: 65%
reduction in seizure severity [5]: 72.5%
CDKL2 expression in the hippocampal and cortical regions [6]: notable increase in CDKL2 expression
GluN2B subunit mislocalization [6]: partially corrected
phosphorylation of key synaptic proteins, including EB2 (MAPRE2) [7]: increased phosphorylation
solubility [8]: approximately 0.1 mg/ml
marble burying capacity ([9]; Het mice treated vs untreated Het mice, 30 mg/kg/day oral (FIG. 8)): improvement in marble burying capacity
crossing of the blood brain barrier ([9]; inferred from the behavioral findings in CDKL5-deficient mice): crosses the blood brain barrier
phosphorylated EB2 isoforms 1 and 2 at ps222 ([10]; Het female mice brain, 30 mg/kg/day, vs untreated controls, not statistically significant (FIG. 2)): trend towards increased phosphorylation
phosphorylated EB2 isoform 3 at ps222 ([10]; Het female mice brain, 30 mg/kg/day, did not reach statistical significance (FIG. 3)): trend toward increased phosphorylation
EB2 phosphorylation levels ([10]; KO male and Het female mice, 30 mg/kg/day in drinking water): increased EB2 phosphorylation levels
